Reference: US20100056524A1, “Compound” (priority 2008, published 2010)
Counter-ions that a name gives are not always drawn. Like-named read-outs stand apart in the source and are kept apart here.

Tests used:
[1] = target: T1, PRK2 (Homo sapiens, UniProt Q16513); experiment: PRK2 protein kinase assay; format: biochemical; conditions: for remaining activity at 1 µM: 1 μM compound; for remaining activity at 10 µM: 10 μM compound; for residual kinase activity PRK2: 1 μm compound
T1 construct: All protein kinases were of human origin and encoded full length proteins, unless indicated otherwise; made in house
Text: (§1) All protein kinases were of human origin and encoded full length proteins, unless indicated otherwise. They were either expressed as glutathione S-transferase (GST) fusion proteins in Escherichia Coli or as hexahistidine (His6)-tagged proteins in insect Sf21 cells. GST fusion proteins were purified by affinity chromatography on glutathione-Sepharose, and His6-tagged proteins on nickel/nitriloacetate-agarose. The procedures for expressing some of the protein kinases used herein have been detailed previously.^8,9 The following sections outline the DNA vectors synthesised and the procedures used to express and purifying protein kinases that have not been reported previously.
(§2) All assays (25.5 μl) were carried out at room temperature (21° C.) and were linear with respect to time and enzyme concentration under the conditions used. Assays were performed for 30 min using Multidrop Micro reagent dispensers (Thermo Electron Corporation, Waltham, Mass. 02454, USA) in a 96-well format. The concentration of magnesium acetate in the assays was 10 mM and the [γ-33P] ATP (800 cpm/pmol) was used at 5, 20 or 50 μM as indicated, in order to be at or below the Km for ATP for each enzyme. Protein kinases assayed at 5 μM ATP were: —ERK1, ERK8, PKBα, MARK3, Aurora C. Protein kinases assayed at 20 μM ATP were: —JNK1, PDK1, CHK1, CHK2, CDK2 and Aurora B. Protein kinases assayed at 50 μM ATP were: —MNK2, IKKepsilon and TBK1.
(§3) The assays were initiated with MgATP, stopped by addition of 5 μl of 0.5 M orthophosphoric acid and spotted on to P81 filterplates using a unifilter harvester (PerkinElmer, Boston, Mass. 02118, USA). The IC50 values of inhibitors were determined after carrying out assays at 10 different concentrations of each compound.
(§4) Unless stated otherwise, enzymes were diluted in 50 mM Tris/HCl pH 7.5, 0.1 mM EGTA, 1 mg/ml BSA, 0.1% (v/v) 2-mercaptoethanol and assayed in 50 mM Tris/HCl pH 7.5, 0.1 mM EGTA, 0.1% (v/v) 2-mercaptoethanol.

[2] = target: T2, CHK2 (Homo sapiens, UniProt O96017); experiment: CHK2 protein kinase assay; format: biochemical; conditions: for remaining activity at 1 µM: 1 μM compound; for remaining activity at 10 µM: 10 μM compound; for residual kinase activity CHK2: 1 μm compound
T2 construct: The following proteins were expressed in E. coli: —CHK2[5-543]; GST; made in house; host or cells: E. coli
Text: as §1
(§5) The following proteins were expressed in E. coli: —CHK2[5-543], cyclin-dependent protein kinase 2 (CDK2), MAP kinase-interacting kinase 2 (MNK2), extra-cellular signal-regulated kinase 1 (ERK1).
as §2, §3, §4

[3] = target: T3, CDK2-Cyclin A (Homo sapiens, UniProt P24941); experiment: CDK2-Cyclin A protein kinase assay; format: biochemical; conditions: for remaining activity at 1 µM: 1 μM compound; for remaining activity at 10 µM: 10 μM compound; for residual kinase activity CDK2-Cyclin A: 1 μm compound
T3 construct: All protein kinases were of human origin and encoded full length proteins, unless indicated otherwise; GST (cleaved yes); made in house; host or cells: E. coli
Text: as §1, §5
In order to produce activated forms of Aurora B and Aurora C, insect Sf21 cells were incubated for 1 h with the protein phosphatase inhibitor okadaic acid (50 nM). JNK isoforms were activated with MKK4 and MKK7, MNK2 with p38α MAPkinase; PKBα, PKBβ, with PDK1, and ERK1 with MKK1. To activate CDK2, bacterial pellets expressing cyclin A2 and CDK2 were mixed together, lyse and purified on glutathione Sepharose. The GST-tags were removed by cleavage with PreScission protease and the CDK2-cyclin A2 complex purified by chromatography on SP-Sepharose. It was then activated with CAK1/CDK7 followed by chromatography on nickel-nitrilotriacetate agarose to remove CAK1/CDK7, which binds to this column by virtue of its C-terminal His6 tag. All the other protein kinases were active as expressed.
as §2, §3, §4

[4] = target: T4, MELK (Homo sapiens, UniProt Q14680); experiment: MELK protein kinase assay; format: biochemical; conditions: for remaining activity at 1 µM: 1 μM compound; for remaining activity at 10 µM: 10 μM compound; for residual kinase activity MELK: 1 μm compound
T4 construct: All protein kinases were of human origin and encoded full length proteins, unless indicated otherwise; made in house
Text: as §1, §2, §3, §4

[5] = target: T5, DYRK3 (Homo sapiens, UniProt O43781); experiment: DYRK3 protein kinase assay; format: biochemical; conditions: for remaining activity at 1 µM: 1 μM compound; for remaining activity at 10 µM: 10 μM compound; for residual kinase activity DYRK3: 1 μm compound
T5 construct: All protein kinases were of human origin and encoded full length proteins, unless indicated otherwise; made in house
T5 sequence (O43781 1-588): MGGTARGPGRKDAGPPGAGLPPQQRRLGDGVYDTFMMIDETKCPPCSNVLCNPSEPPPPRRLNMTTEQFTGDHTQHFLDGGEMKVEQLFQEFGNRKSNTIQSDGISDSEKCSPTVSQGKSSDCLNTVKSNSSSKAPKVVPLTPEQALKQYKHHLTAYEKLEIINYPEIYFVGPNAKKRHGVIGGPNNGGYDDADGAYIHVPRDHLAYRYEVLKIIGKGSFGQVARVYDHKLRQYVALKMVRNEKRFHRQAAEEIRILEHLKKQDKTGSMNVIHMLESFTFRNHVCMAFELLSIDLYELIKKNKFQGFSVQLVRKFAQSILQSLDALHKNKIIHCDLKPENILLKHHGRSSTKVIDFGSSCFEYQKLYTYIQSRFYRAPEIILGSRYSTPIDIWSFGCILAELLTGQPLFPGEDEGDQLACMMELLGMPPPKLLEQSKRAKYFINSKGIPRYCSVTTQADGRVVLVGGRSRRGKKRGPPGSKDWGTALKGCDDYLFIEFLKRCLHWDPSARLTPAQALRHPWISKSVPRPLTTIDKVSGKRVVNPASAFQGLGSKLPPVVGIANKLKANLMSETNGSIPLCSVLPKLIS
Text: as §1, §2, §3, §4

[6] = system: IRR; experiment: IRR protein kinase assay; format: biochemical, human; conditions: for residual kinase activity: IRR
Text: as §1, §2, §3, §4

[7] = target: T6, EPH A2 (Homo sapiens, UniProt P29317); experiment: EPH A2 protein kinase assay; format: biochemical; conditions: for remaining activity at 1 µM: 1 μM compound; for remaining activity at 10 µM: 10 μM compound; for residual kinase activity EPH A2: 1 μm compound
T6 construct: All protein kinases were of human origin and encoded full length proteins, unless indicated otherwise; made in house
T6 sequence (P29317 591-976 limits assumed): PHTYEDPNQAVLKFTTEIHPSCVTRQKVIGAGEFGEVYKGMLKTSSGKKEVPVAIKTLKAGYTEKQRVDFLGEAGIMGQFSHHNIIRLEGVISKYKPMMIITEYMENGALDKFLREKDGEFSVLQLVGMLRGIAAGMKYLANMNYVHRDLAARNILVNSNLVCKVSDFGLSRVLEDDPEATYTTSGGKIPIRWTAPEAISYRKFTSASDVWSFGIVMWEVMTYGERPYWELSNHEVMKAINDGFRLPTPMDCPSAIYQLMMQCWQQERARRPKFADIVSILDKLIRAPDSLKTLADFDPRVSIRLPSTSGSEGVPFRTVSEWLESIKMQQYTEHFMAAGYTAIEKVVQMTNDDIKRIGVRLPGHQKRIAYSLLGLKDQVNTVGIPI
Text: as §1, §2, §3, §4

[8] = PRK2, read-out: residual kinase activity
[9] = CHK2, 20 μM ATP, read-out: residual kinase activity
[10] = CDK2-Cyclin A, 20 μM ATP, read-out: residual kinase activity
[11] = MELK, read-out: residual kinase activity
[12] = DYRK3, read-out: residual kinase activity
[13] = EPH A2, read-out: residual kinase activity
[14] = read-out: residual kinase activity PRK2
[15] = read-out: residual kinase activity CHK2
[16] = read-out: residual kinase activity CDK2-Cyclin A
[17] = read-out: residual kinase activity MELK
[18] = read-out: residual kinase activity DYRK3
[19] = read-out: residual kinase activity EPH A2

T4 sequence (Q14680 whole entry): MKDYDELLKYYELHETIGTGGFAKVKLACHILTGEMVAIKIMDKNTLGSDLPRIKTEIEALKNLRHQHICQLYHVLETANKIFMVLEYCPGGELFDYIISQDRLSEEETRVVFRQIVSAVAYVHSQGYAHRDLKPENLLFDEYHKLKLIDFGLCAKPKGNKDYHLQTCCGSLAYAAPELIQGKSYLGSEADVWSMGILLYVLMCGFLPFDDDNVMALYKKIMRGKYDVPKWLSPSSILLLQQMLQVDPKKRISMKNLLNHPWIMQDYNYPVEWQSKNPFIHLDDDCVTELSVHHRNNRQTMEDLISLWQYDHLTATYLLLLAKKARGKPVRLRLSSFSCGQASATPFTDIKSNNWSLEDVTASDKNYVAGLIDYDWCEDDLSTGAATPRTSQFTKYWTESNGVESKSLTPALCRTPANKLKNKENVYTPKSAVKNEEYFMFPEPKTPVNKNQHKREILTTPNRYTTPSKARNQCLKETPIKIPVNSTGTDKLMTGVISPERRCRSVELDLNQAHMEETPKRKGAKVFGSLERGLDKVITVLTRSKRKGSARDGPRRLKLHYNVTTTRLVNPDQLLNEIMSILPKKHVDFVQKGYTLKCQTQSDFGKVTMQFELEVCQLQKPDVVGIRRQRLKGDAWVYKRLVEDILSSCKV
T1 sequence (Q16513 501-984 limits assumed): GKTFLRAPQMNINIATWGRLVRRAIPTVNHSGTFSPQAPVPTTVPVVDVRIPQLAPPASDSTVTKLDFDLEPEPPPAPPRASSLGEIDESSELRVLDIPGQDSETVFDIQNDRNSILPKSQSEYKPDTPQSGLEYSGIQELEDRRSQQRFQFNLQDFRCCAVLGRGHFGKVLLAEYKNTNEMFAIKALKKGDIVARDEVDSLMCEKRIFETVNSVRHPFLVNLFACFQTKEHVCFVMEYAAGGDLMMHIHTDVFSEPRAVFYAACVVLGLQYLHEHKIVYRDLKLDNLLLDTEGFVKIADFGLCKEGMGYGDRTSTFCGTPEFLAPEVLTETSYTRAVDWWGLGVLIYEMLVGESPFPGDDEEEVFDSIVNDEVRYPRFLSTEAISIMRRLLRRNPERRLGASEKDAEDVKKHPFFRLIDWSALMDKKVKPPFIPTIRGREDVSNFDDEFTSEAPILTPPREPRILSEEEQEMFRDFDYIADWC
T2 sequence (O96017 5-543): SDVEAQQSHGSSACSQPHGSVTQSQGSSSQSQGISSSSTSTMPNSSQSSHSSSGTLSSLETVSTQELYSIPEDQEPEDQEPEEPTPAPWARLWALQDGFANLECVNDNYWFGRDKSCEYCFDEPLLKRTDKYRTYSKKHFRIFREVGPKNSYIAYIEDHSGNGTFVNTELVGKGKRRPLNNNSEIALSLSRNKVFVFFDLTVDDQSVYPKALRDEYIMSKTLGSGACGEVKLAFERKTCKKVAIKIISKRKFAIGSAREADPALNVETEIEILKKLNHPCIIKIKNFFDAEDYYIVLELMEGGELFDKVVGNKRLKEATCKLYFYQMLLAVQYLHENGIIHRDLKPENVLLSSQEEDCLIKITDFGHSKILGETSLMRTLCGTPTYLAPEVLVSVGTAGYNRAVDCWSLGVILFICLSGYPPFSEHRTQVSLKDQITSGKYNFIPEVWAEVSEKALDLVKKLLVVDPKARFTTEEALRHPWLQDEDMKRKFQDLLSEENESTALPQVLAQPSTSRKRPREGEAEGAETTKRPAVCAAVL

SMILES | remaining activity at 1 µM [1, 8] [%] | remaining activity at 10 µM [1, 8] [%] | remaining activity at 1 µM [2, 9] [%] | remaining activity at 10 µM [2, 9] [%] | remaining activity at 1 µM [3, 10] [%] | remaining activity at 10 µM [3, 10] [%] | remaining activity at 1 µM [4, 11] [%] | remaining activity at 10 µM [4, 11] [%] | remaining activity at 1 µM [5, 12] [%] | remaining activity at 10 µM [5, 12] [%] | residual kinase activity ([6]; 1 μM compound) [%] | residual kinase activity ([6]; 10 μM compound) [%] | remaining activity at 1 µM [7, 13] [%] | remaining activity at 10 µM [7, 13] [%] | remaining activity at 10 µM [1, 14] [%] | residual kinase activity PRK2 [1] [%] | remaining activity at 10 µM [2, 15] [%] | residual kinase activity CHK2 [2] [%] | remaining activity at 10 µM [3, 16] [%] | residual kinase activity CDK2-Cyclin A [3] [%] | further results
O=C(NCCCNc1nc(Nc2cccc(N3CCCC3=O)c2)ncc1C1CC1)c1cccs1 [Example 47, Thiophene-2-carboxylic acid (3-{5-cyclopropyl-2-[3-(2-oxo-pyrrolidin-1-yl)-phenylamino]-pyrimidin-4-ylamino}-propyl)-amide. Hydrochloride salt] | 76 | 68 | 71 | 28 | 70 | 29 | 14 | 27 | 73 | 33 | 64 | 25 | 47 | 76 | – | – | – | – | – | – | –
O=C(NCCCNc1nc(Nc2cccnc2)ncc1C1CC1)c1cccs1 [Example 50, Thiophene-2-carboxylic acid {3-[5-cyclopropyl-2-(pyridin-3-ylamino)-pyrimidin-4-ylamino]-propyl}-amide] | 68 | 58 | 52 | 16 | 33 | 5 | 29 | 17 | 59 | 22 | 39 | 17 | 88 | 73 | – | – | – | – | – | – | –
O=C(NCCCNc1nc(Nc2cccc(F)c2)ncc1Br)C1CCC1 [Compound A, cyclobutanecarboxylic acid {3-[5-bromo-2-(3-fluoro-phenylamino)-pyrimidin-4-ylamino]-propyl}-amide, reference compound] | – | – | – | – | – | – | – | – | – | – | – | – | – | – | 4 | 24 | 12 | 13 | 0 | 1 | remaining activity at 10 µM [4, 17]: 14%; residual kinase activity MELK [4]: 15%; remaining activity at 10 µM [5, 18]: 7%; residual kinase activity DYRK3 [5]: 33%; residual kinase activity IRR ([6]; 10 μM compound): 15%; residual kinase activity IRR ([6]; 1 μm compound): 32%; remaining activity at 10 µM [7, 19]: 60%; residual kinase activity EPH A2 [7]: 87%
O=C(NCCCNc1nc(Nc2cccc(F)c2)ncc1C1CC1)C1CCC1 [Example 23, Cyclobutanecarboxylic acid {3-[5-cyclopropyl-2-(3-fluoro-phenylamino)-pyrimidin-4-ylamino]-propyl}-amide] | 67 | 60 | 50 | 11 | 17 | 2 | 23 | 3 | 78 | 36 | 44 | 17 | 71 | 71 | 60 | 67 | 11 | 50 | 2 | 17 | remaining activity at 10 µM [4, 17]: 3%; residual kinase activity MELK [4]: 23%; remaining activity at 10 µM [5, 18]: 36%; residual kinase activity DYRK3 [5]: 78%; residual kinase activity IRR ([6]; 10 μM compound): 17%; residual kinase activity IRR ([6]; 1 μm compound): 44%; remaining activity at 10 µM [7, 19]: 71%; residual kinase activity EPH A2 [7]: 71%
